According to patent US20160325113A1, “Phototherapy Devices and Methods Comprising Optionally Substituted Quinquiesphenyl Compounds” (NITTO DENKO CORPORATION, priority 2012, published 2016):
Where two headings read alike, the source gives them in different places.

What was measured:
[1] = test system: actinic keratoses lesions; assay: Topical photosensitizer plus red OLED illumination of actinic keratoses lesions; conditions: 20% topical solution; illuminated with red OLED about 14-18 hours after application
Protocol: About 14-18 hours after application, the treated lesions are illuminated with a red light-emitting OLED device constructed as set forth in Example 2.
The treatment is repeated as needed.
The excess cream is removed with saline, and the lesions are illuminated with the red light-emitting OLED constructed as set forth in Example 2.

[2] = Intravenous verteporphin plus red OLED illumination of the retina, pathological myopia; assay type: in vivo, person; conditions: about 6 mg/m^2 i.v.; retina illuminated with red OLED about 15 minutes after start of infusion
Protocol: Verteporphin is intravenously injected, over a period of about 10 minutes at a rate of about 3 mL/min, to a person suffering from pathological myopia. The verteporphin (7.5 mL of 2 mg/mL reconstituted solution, available as Visudyne® from Novartis) is diluted with 5% dextrose to a volume of 30 mL using a sufficient quantity of the reconstituted verteporphin so that the total dose injected is about 6 mg/m^2 of body surface. About 15 minutes after the start of the 10 minute infusion of verteporphin, the verteporphin is activated by illuminating the retina with a red light-emitting OLED device as set forth in Example 2. […] The treatment is repeated as needed.

[3] = Intravenous verteporphin plus red OLED illumination of the retina, age-related macular degeneration; assay type: in vivo, person; conditions: about 6 mg/m^2 i.v.; retina illuminated with red OLED about 15 minutes after start of infusion
Protocol: Verteporphin is intravenously injected, over a period of about 10 minutes at a rate of about 3 mL/min, to a person suffering from age-related macular degeneration. The verteporphin (7.5 mL of 2 mg/mL reconstituted solution, available as Visudyne® from Novartis) is diluted with 5% dextrose to a volume of 30 mL using a sufficient quantity of the reconstituted verteporphin so that the total dose injected is about 6 mg/m^2 of body surface. About 15 minutes after the start of the 10 minute infusion of verteporphin, the verteporphin is activated by illuminating the retina with a red light-emitting OLED device as set forth in Example 2.

[4] = set-up: species or system person; conditions: in vivo, iv

| Structure (SMILES) | number or severity of the lesions after treatment [1] | patient's vision after treatment [2] | patient's vision after treatment [3] | patient's vision after treatment [4] |
| --- | --- | --- | --- | --- |
| Cl.NCC(=O)CCC(=O)O [5-Aminolevulinic acid HCl] | reduced |  |  |  |
| C=Cc1c(C)c2cc3nc(cc4[nH]c(cc5nc(cc1[nH]2)C(C)=C5CCC(=O)O)c(CCC(=O)OC)c4C)[C@@]1(C)C3=CC=C(C(=O)OC)[C@H]1C(=O)OC [Verteporphin] |  | stabilized | stabilized | stabilized |
